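Grown in 96-well plates, cells were treated for 48 hours with each compound at five concentrations. Insufficient inhibition: endpoint recorded as highest concentration tested. GI50 = concentration required for 50% inhibition of growth.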 Active and inactive are the calls of the source. No stated cut-off is given here; in the data, active = GI50 up to about 1.1 µM and inactive = higher.
Assays:
Assay in all cases: NCI-60 cell line screen, 48 h
[1] = system: 786-0
[2] = system: A498
[3] = system: ACHN
[4] = system: CCRF-CEM
[5] = system: DU-145
[6] = system: HL-60
[7] = system: IGROV-1
[8] = system: K562
[9] = system: MCF7
[10] = system: MDA-MB-435
[11] = system: NCI-H226
[12] = system: NCI/ADR-RES
[13] = system: RXF 393
[14] = system: SF-268
[15] = system: SF-539
[16] = system: SK-MEL-2
[17] = system: SN12C
[18] = system: SR
[19] = system: T47D
[20] = system: TK-10

Structure (SMILES)	GI50 [1]	GI50 [2]	GI50 [3]	GI50 [4]	GI50 [5]	GI50 [6]	GI50 [7]	GI50 [8]	GI50 [9]	GI50 [10]	GI50 [11]	GI50 [12]	GI50 [13]	GI50 [14]	GI50 [15]	GI50 [16]	GI50 [17]	GI50 [18]	GI50 [19]	GI50 [20]
C=COC(=O)N[C@H]1CCc2cc(OC)c(OC)c(OC)c2-c2ccc(SC)c(=O)cc21	< 0.01 µM (active)	< 0.01 µM (active)	< 0.01 µM (active)	< 0.01 µM (active)	< 0.01 µM (active)	< 0.01 µM (active)	< 0.01 µM (active)	< 0.01 µM (active)	< 0.0136 µM (active)	< 0.01 µM (active)	0.0372 µM (active)	< 0.01 µM (active)	< 0.0176 µM (active)	< 0.01 µM (active)	< 0.01 µM (active)	< 0.01 µM (active)	< 0.01 µM (active)	< 0.01 µM (active)	34 µM (inactive)	0.177 µM (active)
CC(C)CC(NC(=O)OC(C)(C)C)C(=O)Nc1ccc(Nc2nc(F)nc(-c3c4ccccc4cn3C)n2)cc1 (stereo not given)	> 100 µM (inactive)	98.6 µM (inactive)	62.7 µM (inactive)	33.3 µM (inactive)	20.3 µM (inactive)	3.94 µM (inactive)	> 100 µM (inactive)	62.2 µM (inactive)	4.89 µM (inactive)	> 100 µM (inactive)	> 100 µM (inactive)	> 100 µM (inactive)	22.2 µM (inactive)	> 100 µM (inactive)	> 93.3 µM (inactive)	> 100 µM (inactive)	> 100 µM (inactive)	53.6 µM (inactive)	40.4 µM (inactive)	> 92.7 µM (inactive)
CSC1(SC)N2Cc3ccccc3N=C2C1(c1ccccc1)c1ccccc1	22.5 µM (inactive)	15.7 µM (inactive)	14.1 µM (inactive)	8.73 µM (inactive)	19.5 µM (inactive)	6.08 µM (inactive)	24.2 µM (inactive)	10.1 µM (inactive)	8.17 µM (inactive)	4.01 µM (inactive)	> 100 µM (inactive)	16.4 µM (inactive)	9.82 µM (inactive)	21.3 µM (inactive)	12.8 µM (inactive)	12.7 µM (inactive)	20.5 µM (inactive)	1.95 µM (inactive)	4.51 µM (inactive)	> 35.1 µM (inactive)
Nc1nc(-c2ccc3ccccc3c2)cc(-c2cc(-c3ccc4ccccc4c3)nc(N)n2)n1	> 100 µM (inactive)	> 100 µM (inactive)	> 100 µM (inactive)	> 100 µM (inactive)	> 100 µM (inactive)	> 100 µM (inactive)	> 100 µM (inactive)	> 100 µM (inactive)	> 100 µM (inactive)	> 100 µM (inactive)	> 100 µM (inactive)	> 100 µM (inactive)	> 100 µM (inactive)	> 100 µM (inactive)	> 100 µM (inactive)	> 100 µM (inactive)	> 100 µM (inactive)	> 100 µM (inactive)	> 100 µM (inactive)	> 100 µM (inactive)
Cc1cccc(-c2nc3ccc([N+](=O)[O-])cc3c(=O)o2)c1	48.8 µM (inactive)	28.6 µM (inactive)	83.8 µM (inactive)	27.8 µM (inactive)	59.8 µM (inactive)	59.7 µM (inactive)	> 100 µM (inactive)	35.3 µM (inactive)	62.5 µM (inactive)	89.7 µM (inactive)	71.6 µM (inactive)	26.1 µM (inactive)	> 100 µM (inactive)	60.3 µM (inactive)	27.9 µM (inactive)	91.2 µM (inactive)	72.3 µM (inactive)	28.8 µM (inactive)	47.5 µM (inactive)	59.3 µM (inactive)

Source: ChEMBL document CHEMBL1201862, “PubChem BioAssay data set” (2004)
